Measurements reported in publication PMC12395054, “Targeting MDM2 homodimer and heterodimer disruption with DRx-098D in TP53 wild-type and mutant cancer cells” (Molecular Therapy Oncology, 2025).

Assays:
HCT116 TP53 null cells = assay: Cell viability (CellTiter Glo 2.0); assay type: cell-based, human; details: 24 h, 2% FBS
Protocol: Immunocytochemistry. HCT116 TP53 null cells were seeded at 0.5 x 10^5 cells per well of a 12-well plate containing a sterilised 0.13-0.17mm glass coverslip in complete DMEM and incubated overnight. Cells were fixed in 4% paraformaldehyde (Sigma) for 15 minutes at room temperature, then permeabilised with 0.1% triton X100 (Sigma) for 4 minutes at room temperature. Cells were then blocked in 10% donkey serum, 1% BSA in PBS for 1 Hr at room temperature. Following blocking, cells were co-incubated in MDM2 (mouse) and MDMX (rabbit) primary antibodies overnight at 4 °C. Subsequently, secondary Alexa Fluor antibodies were co-incubated for a further 1 Hr at room temperature. […]
RTCA xCELLigence. Real-time cellular analysis (RTCA) of A549 cells was measured utilising the label-free cellular growth xCELLigence platform (Roche Applied Science, Agilent Technologies), where-by cellular impedance was leveraged as an indirect indicator of relative cell growth (i.e., cell index; CI). […] Relative growth (Δ growth) of treated A549 cells was assessed as a % difference of vehicle after 72 Hrs post-treatment (i.e., 100% relative cell growth at experiment endpoint).
Cell Viability. For MOLM-13, THP-1 (Fig. 3A), HCT116 TP53 wild-type, HCT116 TP53 null (Fig. 3D), HEK293, and IMR-90 (Fig. 3E) cells, relative cell viability was assessed via CellTiter Glo 2.0 Cell Viability Assay (Promega: […]

MDM2:MDMX heterodimer = molecular target: T1, MDM2:MDMX heterodimer (Homo sapiens, UniProt Q00987); assay: Proximity ligation assay, endogenous FL-MDM2 and MDMX in A549; assay type: cell-based; details: A549 (TP53 WT), 10% FBS
T1 construct: PLA of endogenous FL-MDM2 and MDMX in A549; endogenous in cells; host or cells: A549
T1 sequence (Q00987 whole entry, one chain of several): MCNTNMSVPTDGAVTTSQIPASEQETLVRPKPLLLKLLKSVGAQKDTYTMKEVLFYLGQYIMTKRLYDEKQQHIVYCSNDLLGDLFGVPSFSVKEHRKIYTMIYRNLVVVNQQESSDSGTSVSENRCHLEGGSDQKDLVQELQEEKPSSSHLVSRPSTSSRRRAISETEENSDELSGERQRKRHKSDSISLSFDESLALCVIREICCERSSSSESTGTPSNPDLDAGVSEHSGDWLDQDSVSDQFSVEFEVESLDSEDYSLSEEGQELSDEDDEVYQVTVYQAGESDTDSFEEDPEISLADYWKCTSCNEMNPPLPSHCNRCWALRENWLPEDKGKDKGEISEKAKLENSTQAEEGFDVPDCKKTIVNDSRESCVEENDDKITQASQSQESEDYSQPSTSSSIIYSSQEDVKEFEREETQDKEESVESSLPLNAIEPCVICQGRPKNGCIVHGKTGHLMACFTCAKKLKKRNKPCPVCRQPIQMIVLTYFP

COc1cc(C(=O)O)ccc1NC(=O)[C@@H]1N[C@@H](CC(C)(C)C)[C@](C#N)(c2ccc(Cl)cc2F)[C@H]1c1cccc(Cl)c1F [Idasanutlin]
Relative cell viability / anti-proliferative activity (in words) (HCT116 TP53 null cells): no anti-proliferative activity | Endogenous MDM2 heterodimerization, PLA (MDM2:MDMX heterodimer): did not affect MDM2 heterodimerization
